From patent publication US8569344B2, “N-piperidinyl acetamide derivatives as calcium channel blockers” (Zalicus Pharmaceuticals Ltd., priority 2008, dated 2013)

These molecules were tested against T1, human α1G T-type channels (Homo sapiens, UniProt O43497) (assay: T-type calcium channel block, whole cell patch clamp in HEK cells (α1G)). Details: HEK cells, patch clamp, mainly non-inactivated protocol; values above 10 μM shown as 10 μM, below 0.30 μM shown as 0.30 μM; read-out: T-type Calcium Channel Block α1G IC50.
T1 construct: expressed in transfected cells; host or cells: HEK 293
Type: cell-based
Method: T-type calcium channel blocking activity was assayed in human embryonic kidney cells, HEK 293, stably transfected with the T-type calcium channel subunits. Briefly, cells were cultured in Dulbecco's modified eagle medium (DMEM) supplemented with 10% fetal bovine serum, 200 U/ml penicillin and 0.2 mg/ml streptomycin at 37° C. with 5% CO2. At 85% confluency cells were split with 0.25% trypsin/1 mM EDTA and plated at 10% confluency on glass coverslips. […] Fresh DMEM was supplied and the cells transferred to 28° C./5% CO2. Cells were incubated for 1 to 2 days prior to whole cell recording.
Standard patch-clamp techniques were employed to identify blockers of T-type currents. Briefly, previously described HEK cell lines stably expressing human α1G, α1H and α1I T-type channels were used for all the recordings (passage #: 4-20, 37° C., 5% CO2). Whole cell patch clamp experiments were performed using an Axopatch 200B amplifier (Axon Instruments, Burlingame, Calif.) linked to a personal computer equipped with pCLAMP software. Data were analyzed using Clampfit (Axon Instruments) and SigmaPlot 4.0 (Jandel Scientific). To obtain T-type currents, plastic dishes containing semi-confluent cells were positioned on the stage of a ZEISS AXIOVERT S100 microscope after replacing the culture medium with external solution (see below). Whole-cell patches were obtained using pipettes (borosilicate glass with filament, O.D.: 1.5 mm, I.D.: 0.86 mm, 10 cm length), fabricated on a SUTTER P-97 puller with resistance values of ˜5 MΩ (see below for internal solution).
In the non-inactivating protocol, the holding potential is set at −110 mV and with a pre-pulse at −100 mV for 1 second prior to the test pulse at −40 mV for 50 ms.
Test compounds were dissolved in external solution, 0.1-0.01% DMSO. After ˜10 min rest, they were applied by gravity close to the cell using a WPI microfil tubing. The “non-inactivated” pre-pulse was used to examine the resting block of a compound. The “inactivated” protocol was employed to study voltage-dependent block. […] Values are shown in μM and values above 10 μM are simply represented as 10 μM.

T1 sequence (O43497 whole entry): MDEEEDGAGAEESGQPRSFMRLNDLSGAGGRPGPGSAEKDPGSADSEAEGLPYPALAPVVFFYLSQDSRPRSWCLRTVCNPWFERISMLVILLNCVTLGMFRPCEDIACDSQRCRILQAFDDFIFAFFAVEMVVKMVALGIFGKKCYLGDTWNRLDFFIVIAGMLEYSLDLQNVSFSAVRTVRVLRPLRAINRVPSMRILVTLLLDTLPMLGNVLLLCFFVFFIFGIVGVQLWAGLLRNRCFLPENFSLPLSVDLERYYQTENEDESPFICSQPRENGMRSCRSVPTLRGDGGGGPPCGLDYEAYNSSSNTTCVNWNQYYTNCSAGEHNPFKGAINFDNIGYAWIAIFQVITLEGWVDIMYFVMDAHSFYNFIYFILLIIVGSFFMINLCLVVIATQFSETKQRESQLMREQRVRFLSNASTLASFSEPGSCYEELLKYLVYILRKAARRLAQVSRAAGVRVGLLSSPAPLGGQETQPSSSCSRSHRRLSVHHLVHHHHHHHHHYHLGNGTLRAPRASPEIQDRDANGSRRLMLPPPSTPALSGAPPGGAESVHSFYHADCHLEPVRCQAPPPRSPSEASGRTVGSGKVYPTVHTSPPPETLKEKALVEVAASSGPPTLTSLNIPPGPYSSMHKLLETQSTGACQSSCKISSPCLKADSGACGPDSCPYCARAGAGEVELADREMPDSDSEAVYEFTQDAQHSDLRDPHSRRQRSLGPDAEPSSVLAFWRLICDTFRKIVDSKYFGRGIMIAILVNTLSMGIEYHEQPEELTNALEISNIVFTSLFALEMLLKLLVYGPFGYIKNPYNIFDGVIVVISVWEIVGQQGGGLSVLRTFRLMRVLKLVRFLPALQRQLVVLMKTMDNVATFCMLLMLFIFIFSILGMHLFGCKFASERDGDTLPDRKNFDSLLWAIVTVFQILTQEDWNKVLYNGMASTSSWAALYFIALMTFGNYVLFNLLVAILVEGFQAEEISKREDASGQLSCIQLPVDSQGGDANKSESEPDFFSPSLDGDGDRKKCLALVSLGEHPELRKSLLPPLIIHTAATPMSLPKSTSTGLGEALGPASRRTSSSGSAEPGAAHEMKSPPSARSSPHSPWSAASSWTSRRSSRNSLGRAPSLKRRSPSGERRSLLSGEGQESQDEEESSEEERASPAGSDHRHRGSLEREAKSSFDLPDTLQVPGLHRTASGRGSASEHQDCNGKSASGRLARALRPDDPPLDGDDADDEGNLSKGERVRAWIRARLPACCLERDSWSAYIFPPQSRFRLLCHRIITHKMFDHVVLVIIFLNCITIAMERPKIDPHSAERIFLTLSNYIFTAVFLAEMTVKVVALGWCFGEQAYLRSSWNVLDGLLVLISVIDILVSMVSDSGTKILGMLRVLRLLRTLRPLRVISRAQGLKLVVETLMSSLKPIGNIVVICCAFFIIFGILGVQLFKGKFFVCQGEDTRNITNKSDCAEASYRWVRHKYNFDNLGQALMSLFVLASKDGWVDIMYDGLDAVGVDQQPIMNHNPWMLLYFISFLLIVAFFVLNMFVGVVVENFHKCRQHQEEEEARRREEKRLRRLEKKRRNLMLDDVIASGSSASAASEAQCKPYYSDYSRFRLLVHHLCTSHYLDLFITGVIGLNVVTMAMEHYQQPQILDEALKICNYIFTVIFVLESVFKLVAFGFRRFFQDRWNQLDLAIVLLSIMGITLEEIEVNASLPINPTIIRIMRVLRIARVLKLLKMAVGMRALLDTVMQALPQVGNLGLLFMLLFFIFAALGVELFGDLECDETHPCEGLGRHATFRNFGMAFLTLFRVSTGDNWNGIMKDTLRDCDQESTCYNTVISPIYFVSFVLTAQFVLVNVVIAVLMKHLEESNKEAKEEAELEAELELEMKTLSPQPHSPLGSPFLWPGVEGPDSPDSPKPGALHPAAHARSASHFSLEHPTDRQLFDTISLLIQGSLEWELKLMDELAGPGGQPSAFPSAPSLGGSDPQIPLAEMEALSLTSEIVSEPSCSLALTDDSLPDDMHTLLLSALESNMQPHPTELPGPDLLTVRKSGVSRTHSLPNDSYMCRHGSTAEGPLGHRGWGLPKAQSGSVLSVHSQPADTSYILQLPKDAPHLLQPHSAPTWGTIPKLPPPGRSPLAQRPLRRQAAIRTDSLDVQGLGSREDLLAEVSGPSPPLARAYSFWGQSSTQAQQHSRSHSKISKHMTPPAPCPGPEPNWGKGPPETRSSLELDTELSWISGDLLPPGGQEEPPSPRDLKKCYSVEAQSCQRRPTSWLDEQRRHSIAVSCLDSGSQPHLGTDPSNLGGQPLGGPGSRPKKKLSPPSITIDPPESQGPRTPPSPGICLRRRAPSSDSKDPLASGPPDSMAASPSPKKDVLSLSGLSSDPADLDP

Row | IC50 | SMILES
1 | > 10 µM | CCS(=O)(=O)NC(CN1CCC(CC(=O)NCc2cc(Cl)cc(Cl)c2)CC1)C(C)(C)C (stereo not shown) [Compound 208, N-(3,5-dichlorobenzyl)-2-(1-(2-(ethylsulfonamido)-3,3-dimethylbutyl)piperidin-4-yl)acetamide]
2 | 0.54 µM | O=C(NCC1CCN(CCNC(=O)C2CCCC2)CC1)c1cc(F)cc(C(F)(F)F)c1 [Compound 402, N-((1-(2-(cyclopentanecarboxamido)ethyl)piperidin-4-yl)methyl)-3-fluoro-5-(trifluoromethyl)benzamide]
3 | < 0.3 µM | CC(C)(C)NC(=O)CN1CCC(CNC(=O)C2(c3ccc(Cl)cc3)CCCC2)CC1 [Compound 428, N-((1-(2-(tert-buylamino)-2-oxoethyl)piperidin-4-yl)methyl)-1-(4-chlorophenyl)cyclopentanecarboxamide]
4 | 1.11 µM | CCOc1cc(OCC)cc(C(=O)NCC2CCN(CCNC(=O)C3CCCC3)CC2)c1 [Compound 403, N-((1-(2-(cyclopentanecarboxamido)ethyl)piperidin-4-yl)methyl)-3,5-diethoxybenzamide]
5 | > 10 µM | CC(C)(C)OC(=O)NCCN1CCC(CNC(=O)c2ccccc2C(F)(F)F)CC1 [Compound 53, tert-butyl 2-(4-((2-(trifluoromethyl)benzamido)methyl)piperidin-1-yl)ethylcarbamate]
6 | 4.04 µM | O=C(NCC1CCN(C[C@@H]2CCCN2S(=O)(=O)CC2CC2)CC1)c1cc(F)cc(C(F)(F)F)c1 [Compound 421, (S)-N-((1-((1-(cyclopropylmethylsulfonyl)pyrrolidin-2-yl)methyl)piperidin-4-yl)methyl)-3-fluoro-5-(trifluoromethyl)benzamide]
7 | > 10 µM | NC1(C(=O)N2CCC(CNC(=O)c3cc(C(F)(F)F)cc(C(F)(F)F)c3)CC2)CCCC1 [Compound 85, N-((1-(1-aminocyclopentanecarbonyl)piperidin-4-yl)methyl)-3,5-bis(trifluoromethyl) benzamide]
8 | > 10 µM | CN(CC1CCN(CCNC(=O)C(C)(C)C)CC1)C(=O)c1cc(F)cc(C(F)(F)F)c1 [Compound 412, 3-fluoro-N-methyl-N-((1-(2-pivalamidoethyl)piperidin-4-yl)methyl)-5-(trifluoromethyl)benzamide]
9 | 4.27 µM | CCC(O)(C(=O)N1CCC(CNC(=O)c2cc(C(F)(F)F)cc(C(F)(F)F)c2)CC1)C(C)(C)C (stereo not shown) [Compound 90, N-((1-(2-ethyl-2-hydroxy-3,3-dimethylbutanoyl)piperidin-4-yl)methyl)-3,5-bis(trifluoromethyl)benzamide]
10 | < 0.3 µM | CC(C)(C)NC(=O)CN1CCC(CNC(=O)C2(c3ccccc3)CCCC2)CC1 [Compound 432, N-((1-(2-(tert-butylamino)-2-oxoethyl)piperidin-4-yl)methyl)-1-phenylcyclopentanecarboxamide]
11 | 8.15 µM | COC(=O)NC(CN1CCC(CC(=O)NCc2cc(Cl)cc(Cl)c2)CC1)C(C)(C)C (stereo not shown) [Compound 223, methyl 1-(4-(2-(3,5-dichlorobenzyl-amino)-2-oxoethyl)piperidin-1-yl)-3,3-dimethylbutan-2-ylcarbamate]
12 | < 0.3 µM | O=C(NCC1CCN(CCNC(=O)C2CCCC2)CC1)c1cc(Cl)cc(C(F)(F)F)c1 [Compound 405, 3-chloro-N-((1-(2-(cyclopentanecarboxamido)ethyl)piperidin-4-yl)methyl)-5-(trifluoromethyl)benzamide]
13 | 8.6 µM | CC(C)(C)C(CN1CCC(CC(=O)NCc2cc(Cl)cc(Cl)c2)CC1)NS(=O)(=O)C1CC1 (stereo not shown) [Compound 209, 2-(1-(2-(cyclopropanesulfonamido)-3,3-dimethylbutyl)piperidin-4-yl)-N-(3,5-dichlorobenzyl)acetamide]
14 | 4.61 µM | O=C(NCC1CCN(CCNC(=O)C2CCCC2)CC1)c1cccc(Cl)c1 [Compound 394, 3-chloro-N-((1-(2-(cyclopentanecarboxamido)ethyl)piperidin-4-yl)methyl)benzamide]
15 | < 0.3 µM | O=C(NCC1CCN(CCNC(=O)C2CCCC2)CC1)c1cc(Br)cc(Br)c1 [Compound 409, 3,5-dibromo-N-((1-(2-(cyclopentanecarboxamido)ethyl)piperidin-4-yl)methyl)benzamide]
16 | 2.01 µM | Cc1cc(C)cc(C(=O)NCC2CCN(CCNC(=O)C3CCCC3)CC2)c1 [Compound 392, N-((1-(2-(cyclopentanecarboxamido)ethyl)piperidin-4-yl)methyl)-3,5-dimethyl-benzamide]
17 | 6.04 µM | Cc1cc(F)cc(C(=O)NCC2CCN(CCNC(=O)C3CCCC3)CC2)c1 [Compound 393, N-((1-(2-(cyclopentanecarboxamido)ethyl)piperidin-4-yl)methyl)-3-fluoro-5-methylbenzamide]
18 | > 10 µM | CC(C)(C)C(N)CN1CCC(CC(=O)NCc2cc(Cl)cc(Cl)c2)CC1 (stereo not shown) [Compound 201, 2-(1-(2-amino-3,3-dimethylbutyl)piperidin-4-yl)-N-(3,5-dichlorobenzyl) acetamide]
19 | > 10 µM | NC1(C(=O)N2CCC(CNC(=O)c3cc(C(F)(F)F)cc(C(F)(F)F)c3)CC2)CCCCC1 [Compound 86, N-((1-(1-aminocyclohexanecarbonyl)piperidin-4-yl)methyl)-3,5-bis(trifluoromethyl) benzamide]
20 | > 10 µM | CC(C)S(=O)(=O)NC(CN1CCC(CC(=O)NCCc2c[nH]c3ccc(F)cc23)CC1)C(C)(C)C (stereo not shown) [Compound 206, 2-(1-(3,3-dimethyl-2-(1-methylethylsulfonamido)butyl)piperidin-4-yl)-N-(2-(5-fluoro-1H-3-yl)ethyl)acetamide]
21 | > 10 µM | CC(C)(C)C(O)CN1CCC(CC(=O)NCc2ccc3c(c2)CCO3)CC1 (stereo not shown) [Compound 176, N-((2,3-dihydrobenzofuran-5-yl)methyl)-2-(1-(2-hydroxy-3,3-dimethylbutyl)piperidin-4-yl)acetamide]
22 | 0.7 µM | O=C(NCC1CCN(C[C@@H]2CCCN2S(=O)(=O)C2CCCC2)CC1)c1cc(F)cc(C(F)(F)F)c1 [Compound 420, (S)-N-((1-((1-(cyclopentylsulfonyl)pyrrolidin-2-yl)methyl)piperidin-4-yl)methyl)-3-fluoro-5-(trifluoromethyl)benzamide]
23 | < 0.3 µM | O=C(NCC1CCN(CCNC(=O)C2CCCC2)CC1)c1cc(Cl)cc(Br)c1 [Compound 406, 3-bromo-5-chloro-N-((1-(2-(cyclopentanecarboxamido)ethyl)piperidin-4-yl)methyl)benzamide]
24 | > 10 µM | CN(CC1CCN(CCNC(=O)NC(C)(C)C)CC1)C(=O)c1cc(F)cc(C(F)(F)F)c1 [Compound 411, N-((1-(2-(3-tert-butylureido)ethyl)piperidin-4-yl)methyl)-3-fluoro-N-methyl-5-(trifluoromethyl)benzamide]
25 | < 0.3 µM | CC1(NC(=O)CN2CCC(CNC(=O)c3cc(C(F)(F)F)cc(C(F)(F)F)c3)CC2)CCCCC1 [Compound 431, N-((1-(2-(1-methylcyclohexylamino)-2-oxoethyl)piperidin-4-yl)methyl)-3,5-bis(trifluoromethyl)benzamide]
26 | > 10 µM | CC(C)(C)C(CN1CCC(CC(=O)NCc2cc(Cl)cc(Cl)c2)CC1)NS(C)(=O)=O (stereo not shown) [Compound 207, N-(3,5-dichhlorobenzyl)-2-(1-(3,3-dimethyl-2-(methylsulfonamido)butyl)piperidin-4-yl)acetamide]
27 | 0.44 µM | CC(C)(C)CC(=O)N1CCC[C@H]1CN1CCC(CNC(=O)c2cc(F)cc(C(F)(F)F)c2)CC1 [Compound 424, (S)-N-((1-((1-(3,3-dimethylbutanol)pyrrolidin-2-yl)methyl)piperidin-4-yl)methyl)-3-fluoro-5-(trifluoromethyl)benzamide]
28 | > 10 µM | CC(C)(C)OC(=O)NCCN1CCC(CNC(=O)c2ccccc2OC(F)(F)F)CC1 [Compound 55, tert-butyl 2-(4-((2-(trifluoromethoxy)benzamido)methyl)piperidin-1-yl)ethylcarbamate]
29 | < 0.3 µM | O=C(NCC1CCN(C[C@@H]2CCCN2C(=O)CCC(F)(F)F)CC1)c1cc(F)cc(C(F)(F)F)c1 [Compound 426, (S)-3-fluoro-N-((1-((1-(4,4,4-trifluorobutanoyl)pyrrolidin-2-yl)methyl)piperidin-4-yl)methyl)-5-(trifluoromethyl)benzamide]
30 | 6.71 µM | CC(C)(O)C(=O)N1CCC(CC(=O)Nc2cc(C(F)(F)F)cc(C(F)(F)F)c2)CC1 [Compound 154, N-(3,5-bis(trifluoromethyl)phenyl)-2-(1-(2-hydroxy-2-methylpropanoyl)piperidin-4-yl)acetamide]

Row | SMILES | IC50
31 | CC(C)(C)OC(=O)NCCN1CCC(CNC(=O)c2cccc(OC(C)(C)C)c2)CC1 [Compound 50, tert-butyl 2-(4-((3-tert-butoxybenzamido)methyl)piperidin-1-yl)ethylcarbamate] | 8.97 µM
